The values that follow come from patent publication US20250188092A1, “RIFAMYCIN ANALOGS” (THE REGENTS OF THE UNIVERSITY OF MICHIGAN, priority 2021, published 2025).

In one series the test system is DPX2 cells. The conditions noted are these: for DPX2 Viability @ 6.25 μM: 24 h; for DPX2 Viability @ 25 μM: human.
The next series deals with MTB H37Rv ATCC 27294. Description: MIC, microplate Alamar Blue assay (MABA). The format is cell-based, Mycobacterium tuberculosis. To be noted: for MIC90: Mycobacterium tuberculosis, MTB H37Rv ATCC 27294, microplate Alamar Blue assay, lowest concentration giving ≥90% reduction in fluorescence. For orientation: Resazurin is reduced to fluorescent resorufin, in cell work by metabolically active cells.

As to `CO[C@H]1/C=C/O[C@@]2(C)Oc3c(C)c(O)c4c(=O)c(c5oc6cc(N7CCN(CC(C)C)CC7)cc(N7CCN(CC(C)C)CC7)c6nc-5c4c3C2=O)NC(=O)/C(C)=C\C=C\[C@H](C)[C@H](O)[C@@H](C)[C@@H](O)[C@@H](C)[C@H](OC(C)=O)[C@@H]1C` [Compound 17u, 7S,9E,11S,12R,13S,14R,15R,16R,17S,18S,19E,21Z)-2,15,17-trihydroxy-11-methoxy-3,7,12,14,16,18,22-heptamethyl-30,32-bis[4-(2-methylpropyl)piperazin-1-yl]-6,23,37-trioxo-8,27,38-trioxa-24,34-diazahexacyclo[23.11.1.1^4,7.0^5,36.0^26,35.0^28,33]octatriaconta-1,3,5(36)9,19,21,25,28,30,32,34-undecaen-13-yl acetate], in the series on DPX2 cells, the “DPX2 Viability @ 6.25 μM” value is 106% and the “DPX2 Viability @ 25 μM” value turned out to be 90%.
On the same counts, the results for `CO[C@H]1/C=C/O[C@@]2(C)Oc3c(C)c(O)c4c(=O)c(c5oc6cc(N7CCN(CCn8ccnc8)CC7)cc(C)c6nc-5c4c3C2=O)NC(=O)/C(C)=C\C=C\[C@H](C)[C@H](O)[C@@H](C)[C@@H](O)[C@@H](C)[C@H](OC(C)=O)[C@@H]1C` [Compound 26c, (7S,9E,11S,12R,13S,14R,15R,16R,17S,18S,19E,21Z)-2,15,17-trihydroxy-30-{4-[2-(1H-imidazol-1-yl)ethyl]piperazin-1-yl}-11-methoxy-3,7,12,14,16,18,22,32-octamethyl-6,23,37-trioxo-8,27,38-trioxa-24,34-diazahexacyclo[23.11.1.1^4,7.0^5,36.0^26,35.0^28,33]octatriaconta-1(36)2,4,9,19,21,25,28,30,32,34-undecaen-13-yl acetate] are 108% and 96%.
With `CO[C@H]1/C=C/O[C@@]2(C)Oc3c(C)c(O)c4c(=O)c(c5oc6cc(N7CCN(C(C)=O)CC7)cc(C)c6nc-5c4c3C2=O)NC(=O)/C(C)=C\C=C\[C@H](C)[C@H](O)[C@@H](C)[C@@H](O)[C@@H](C)[C@H](OC(C)=O)[C@@H]1C` [Compound 26d, (7S,9E,11S,12R,13S,14R,15R,16R,17S,18S,19E,21Z)-30-(4-Acetylpiperazin-1-yl)-2,15,17-trihydroxy-11-methoxy-3,7,12,14,16,18,22,32-octamethyl-6,23,37-trioxo-8,27,38-trioxa-24,34-diazahexacyclo[23.11.1.1^4,7.0^5,36.0^26,35.0^28,33]octatriaconta-1(36)2,4,9,19,21,25,28,30,32,34-undecaen-13-yl acetate], in the series with DPX2 cells, the “DPX2 Viability @ 6.25 μM” value was determined as 106% and the “DPX2 Viability @ 25 μM” value turned out to be 88%. For the same compound, in the series with MTB H37Rv ATCC 27294, the “MIC90 MABA Rel to RMP” value is 0.35 and the MIC90 (usually the lowest concentration that inhibits either 90% of growth or 90% of the strains tested, depending on the study) was 9.4 nM.
For `CCC(=O)N1CCN(c2cc(C)c3nc4c5c6c7c(C)c(O)c5c(=O)c(c-4oc3c2)NC(=O)/C(C)=C\C=C\[C@H](C)[C@H](O)[C@@H](C)[C@@H](O)[C@@H](C)[C@H](OC(C)=O)[C@H](C)[C@@H](OC)/C=C/O[C@@](C)(O7)C6=O)CC1` [Compound 26e, (7S,9E,11S,12R,13S,14R,15R,16R,17S,18S,19E,21Z)-2,15,17-Trihydroxy-11-methoxy-3,7,12,14,16,18,22,32-octamethyl-6,23,37-trioxo-30-(4-propanoylpiperazin-1-yl)-8,27,38-trioxa-24,34-diazahexacyclo[23.11.1.1^4,7.0^5,36.0^26,35.0^28,33]octatriaconta-1(36)2,4,9,19,21,25,28,30,32,34-undecaen-13-yl acetate], in the series on DPX2 cells, the “DPX2 Viability @ 6.25 μM” value came to 101% and the “DPX2 Viability @ 25 μM” value turned out to be 97%. Also, in the series with MTB H37Rv ATCC 27294, the “MIC90 MABA Rel to RMP” value came out at 0.35 and the MIC90 was found to be 9.4 nM.
